Reference: article PMC10419252, “Synthesis, Properties, and Biomedical Application of Dicationic Gemini Surfactants with Dodecane Spacer and Carbamate Fragments” (International Journal of Molecular Sciences, 2023)
Converted amounts (≈) assume the structure as drawn. “And” between values parts separate entries of the source, which are not always exact repeats. Equal entries are not always repeated. Where two headings read alike, the source gives them in different places.

Legend:
[1] = system: Pseudomonas aeruginosa ATCC 9027; experiment: Antimicrobial activity (Pa); assay type: cell-based
Method: (§1) The antimicrobial activity of the compounds was tested on Gram-positive Staphylococcus aureus ATCC 6538P FDA 209P (Sa), Bacillus cereus ATCC 10702 NCTC 8035 (Bc), Enterococcus faecalis ATCC 29212 (Ef), and Gram-negative bacteria Escherichia coli ATCC 25922 (Ec), Pseudomonas aeruginosa ATCC 9027 (Pa), including methicillin-resistant strains of S. aureus MRSA-1 (resistant to fluoroquinolones and beta-lactams) and MRSA-2 (resistant to beta-lactams). Antifungal activity was studied against Candida albicans ATCC 10231 (Ca), Trichophyton mentagrophytes var. gypseum 1773 (Tm), and Aspergillus niger BKMF-1119 (An). A more detailed description of the experiment is published in [21].

[2] = system: methicillin-resistant S. aureus MRSA-2 (resistant to beta-lactams); experiment: Antimicrobial activity (MRSA-2); assay type: cell-based
Method: as §1

[3] = system: Staphylococcus aureus ATCC 6538P FDA 209P; experiment: Antimicrobial activity (Sa); assay type: cell-based
Method: as §1

Conductometry = assay type: physicochemical; settings: 298 K
Method: The electrical conductivity of the micellar solutions was determined on an InoLab Cond 7110 conductometer (WTW, Weilheim, Germany). For the experiment, surfactant solutions with a volume of 10 mL were prepared. The electrical conductivity of all solutions was recorded at 298 K, and the electrode was washed with purified water after each measurement. The cmc was determined from the breakpoint of the dependence of electrical conductivity on the concentration of surfactants.

[4] = system: Enterococcus faecalis ATCC 29212; experiment: Antimicrobial activity (Ef); assay type: cell-based
Method: as §1

Pyrene fluorimetry = assay type: physicochemical; settings: 298 K
Method: To determine cmc by fluorimetry, a hydrophobic probe pyrene was added to a series of surfactant solutions at a concentration of 1 μM. The solutions were kept for 30–40 min for complete solubilization of the probe. The fluorescent emission spectra of pyrene were recorded on an F-7100 fluorimeter (Hitachi, Tokyo, Japan) using 10 × 4 mm quartz cuvette (Hellma Analytics, Müllheim, Germany) with the following settings: λex = 335 nm, λem = 350–600 nm, and scanning speed = 1200 nm/min. The cmc was calculated from the dependence of the pyrene polarity index (the ratio of the intensities of the first (373 nm) and third (383 nm) peaks) on the surfactant concentration.

[5] = system: Candida albicans ATCC 10231; experiment: Antifungal activity (Ca); assay type: cell-based
Method: as §1

[6] = system: Bacillus cereus ATCC 10702 NCTC 8035; experiment: Antimicrobial activity (Bc); assay type: cell-based
Method: as §1

[7] = molecular target: T1, human butyrylcholinesterase (hBChE) (Homo sapiens, UniProt P06276); experiment: In vitro cholinesterase inhibition, Ellman's method (hBChE); assay type: biochemical
T1 construct: purchased Sigma-Aldrich
Method: (§2) Stock solutions (0.01 M) of the compounds were dissolved in H2O. The inhibitory activity of compounds against hAChE and hBChE was measured using Ellman’s method. Enzyme-catalyzed hydrolysis was carried out in 0.1 M PBS (pH = 8.0) containing 0.1 nM hAChE or hBChE, 0.1 mM 5,5′-dithiobis-(2-nitrobenzoic acid) and 1mM acetylthiocholine or butyrylthiocholine as substrates. The tested compounds were incubated with the enzyme for 5 min prior to the addition of the substrate. Analyses were performed at 298 K using a Shimadzu UV-1800 spectrophotometer (Shimadzu Co., Kyoto, Japan) at 412 nm. The substrate hydrolysis rate was measured within 2 min. A sample without inhibitor was used as a control (100% cholinesterase activity). A sample without substrate was used as a blank. The experiments were conducted in triplicate. The percentage of enzyme inhibition was determined using OriginPro 8.5 software (OriginLab Corporation, Northampton, MA, USA) by plotting a percentage of the inhibition versus compound concentration. IC50 values (inhibitor concentration required to inhibit enzyme activity by 50%) were determined by the Hill equation: E/Emax=[I]^n/IC50n+[I]^n, where E is enzyme activity in the presence of the compound, and [I] is the compound concentration.

[8] = Tensiometry (Du Nouy ring), surface tension isotherms; assay type: physicochemical
Method: The surface tension isotherms of the micellar solutions were determined using the Du Nouy platinum ring detachment method on a K6 tensiometer (KRŰSS GmbH, Hamburg, Germany). For the experiment, surfactant solutions with a volume of 10 mL were prepared. The measurements were carried out strictly at 298 K in glass beakers, the diameter of which exceeded the diameter of the platinum ring. Surface tension measurements were carried out until stable values were obtained. After each measurement, the ring was degreased in ethanol and thoroughly dried. The cmc of the micellar solutions was determined from the breakpoint on the isotherm of surface tension versus surfactant concentration. The thermodynamic parameters of adsorption and micellization were calculated for all systems based on the obtained tensiometric curves.

[9] = system: Escherichia coli ATCC 25922; experiment: Antimicrobial activity (Ec); assay type: cell-based
Method: as §1

[10] = Orange OT solubilization, spectrophotometry (Schott method for Nagg); assay type: physicochemical
Method: (§3) The cmc and the solubilizing capacity (S) of surfactants were determined using the spectral azo dye OOT and the non-steroidal anti-inflammatory drug IND. To obtain a saturated solution, an excess of OOT and IND was added to 2 mL of a surfactant solution, stirred, and kept for 48 and 24 h, respectively. After that, the solutions were filtered using Millex® Syringe Filters (Millipore, Burlington, MA, USA) with a pore size of 450 nm, and the optical density was measured. The absorption spectra were recorded on a Specord 250 Plus spectrophotometer (Analytik Jena AG, Jena, Germany). Quartz cells with a thickness of 1 and 0.5 cm (Hellma Analytics, Müllheim, Germany) were used for measurements.
(§4) The solubilizing capacity (S) was determined using the following formula:S = b/ε, where b is D/l = f (Csurf) dependency slope (above cmc), ε is the extinction coefficient (17,400 L/mol∙cm for OOT, and the extinction coefficients of IND are determined in GS solutions and presented in Figure S10).
The OOT solubilization method (Schott method) was used to calculate the micelle Nagg. The Nagg values were calculated for each point on the curve of dependence of the OOT-reduced optical density on the surfactant concentration above the cmc according to the presented formula:[…], where ε is the extinction coefficient of OOT, Csurf is the surfactant concentration above cmc, and D is the optical density.

[11] = system: Aspergillus niger BKMF-1119; experiment: Antifungal activity (An); assay type: cell-based
Method: as §1

[12] = molecular target: T2, human acetylcholinesterase (hAChE) (Homo sapiens, UniProt P22303); experiment: biochemical
T2 construct: purchased Sigma-Aldrich
Method: as §2

[13] = system: Trichophyton mentagrophytes var. gypseum 1773; experiment: Antifungal activity (Tm); assay type: cell-based
Method: as §1

[14] = system: methicillin-resistant S. aureus MRSA-1 (resistant to fluoroquinolones and beta-lactams); experiment: Antimicrobial activity (MRSA-1); assay type: cell-based
Method: as §1

[15] = Indomethacin solubilization, spectrophotometry; assay type: physicochemical; settings: 298 K
Method: as §3, §4

[16] = alkyltrimethylammonium bromides; cited from earlier work
[17] = system: methicillin-resistant S. aureus MRSA-1 (resistant to fluoroquinolones and beta-lactams); settings: cited from earlier work

T2 sequence (P22303 32-614): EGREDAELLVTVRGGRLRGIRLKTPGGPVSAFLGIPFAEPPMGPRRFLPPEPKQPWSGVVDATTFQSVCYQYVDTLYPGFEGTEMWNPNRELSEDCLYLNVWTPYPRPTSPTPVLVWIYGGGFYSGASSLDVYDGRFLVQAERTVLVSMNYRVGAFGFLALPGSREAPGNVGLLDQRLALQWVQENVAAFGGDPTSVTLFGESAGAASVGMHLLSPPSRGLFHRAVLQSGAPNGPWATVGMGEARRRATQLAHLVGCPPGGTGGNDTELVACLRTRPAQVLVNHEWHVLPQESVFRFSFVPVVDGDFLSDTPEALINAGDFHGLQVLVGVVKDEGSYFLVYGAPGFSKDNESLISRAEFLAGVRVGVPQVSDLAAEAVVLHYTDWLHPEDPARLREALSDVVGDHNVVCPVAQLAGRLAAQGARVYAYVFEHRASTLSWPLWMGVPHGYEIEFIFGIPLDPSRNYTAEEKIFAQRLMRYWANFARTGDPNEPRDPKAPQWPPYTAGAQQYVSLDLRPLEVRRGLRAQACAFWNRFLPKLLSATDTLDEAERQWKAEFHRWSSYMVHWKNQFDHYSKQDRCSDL
T1 sequence (P06276 29-602): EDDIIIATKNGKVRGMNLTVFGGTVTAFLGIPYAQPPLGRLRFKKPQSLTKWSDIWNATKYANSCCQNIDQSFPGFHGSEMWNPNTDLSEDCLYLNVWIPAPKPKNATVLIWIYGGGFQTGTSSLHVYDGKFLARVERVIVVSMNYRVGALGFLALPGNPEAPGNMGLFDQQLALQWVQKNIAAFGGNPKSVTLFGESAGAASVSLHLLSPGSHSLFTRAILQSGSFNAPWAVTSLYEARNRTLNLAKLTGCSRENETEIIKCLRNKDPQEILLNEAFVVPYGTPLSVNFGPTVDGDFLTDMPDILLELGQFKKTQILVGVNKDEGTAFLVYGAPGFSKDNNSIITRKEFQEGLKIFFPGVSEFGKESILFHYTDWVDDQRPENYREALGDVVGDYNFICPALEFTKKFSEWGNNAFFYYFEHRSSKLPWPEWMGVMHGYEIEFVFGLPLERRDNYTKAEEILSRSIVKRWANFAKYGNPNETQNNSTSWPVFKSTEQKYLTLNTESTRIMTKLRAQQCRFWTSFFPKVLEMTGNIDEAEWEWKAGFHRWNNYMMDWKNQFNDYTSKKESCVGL

CCCCCCCCCC[N+](C)(CCCCCCCCCCCC[N+](C)(CCCCCCCCCC)CCOC(=O)NCC)CCOC(=O)NCC (stereo not shown) [10-12-10(Et)]
MBC, Pa [1]: 3.9 ± 0.3 µg/mL | MIC, Pa [1]: 1.9 ± 0.1 µg/mL | MBC, MRSA-2 [2]: 3.9 ± 0.3 µg/mL | MIC, MRSA-2 [2]: 0.5 µg/mL and 0.5 ± 0.03 µg/mL | MBC, Sa [3]: 0.5 ± 0.04 µg/mL | MIC, Sa [3]: 0.5 ± 0.03 µg/mL | cmccond (Conductometry): 1.5 mM and 1.5 ± 0.04 mM | βcond (degree of counterion binding) (Conductometry): 0.41 | MBC, Ef [4]: 0.5 ± 0.04 µg/mL | MIC, Ef [4]: 0.5 ± 0.03 µg/mL | cmc, Fluorimetry (Pyrene fluorimetry): 0.9 mM and 0.9 ± 0.03 mM | MFC, Ca [5]: 15.6 ± 1.2 µg/mL | MIC, Ca [5]: 0.9 ± 0.07 µg/mL | MBC, Bc [6]: 0.5 ± 0.03 µg/mL | MIC, Bc [6]: 0.5 ± 0.04 µg/mL | IC50 [7]: 19 ± 5 nM | Amin (surface area per surfactant molecule) ([8]; 298 K): 2.34 nm^2 | Гmax∙10^6 (maximum surface excess) ([8]; 298 K): 0.71 mol∙m^−2 | ∆Gmic (free energy of micellization) ([8]; 298 K): -6.09 kcal/mol | calculated adsorption layer thickness ([8]; air/water interface): 0.7 nm | cmctens ([8]; tensiometry, 298 K): 1 mM and 1 ± 0.03 mM | MBC, Ec [9]: 0.5 ± 0.03 µg/mL | MIC, Ec [9]: 0.5 ± 0.03 µg/mL | S (solubilizing capacity), OOT [10]: 0.021 molOOT/molGS | S (solubilizing capacity), OOT ([10]; 298 K): 0.021 molprobe/molGS | cmc, Spectrophotometry ([10]; OOT, 298 K): 1.5 ± 0.1 mM | Nagg (aggregation number) ([10]; Schott approach, OOT solubilization, 298 K): 50 | MFC, An [11]: >250 µg/mL | MIC, An [11]: 250 ± 19 µg/mL | IC50 [12]: 43.1 ± 0.9 nM | SIhBChE/hAChE (selectivity index) ([12]; IC50 hBChE / IC50 hAChE): 0.44 | MFC, Tm [13]: 15.6 ± 1.3 µg/mL | MIC, Tm [13]: 0.9 ± 0.07 µg/mL | MBC, MRSA-1 [14]: 1.9 ± 0.1 µg/mL | MIC, MRSA-1 [14]: 0.5 µg/mL and 0.5 ± 0.03 µg/mL | S (solubilizing capacity), IND [15]: 0.13 molprobe/molGS

CCCCCCCCCCCC[N+](C)(C)C.[Br-] [C12TAB]
Nagg [16]: 55

CCCCCCCCCCCCCC[N+](C)(C)C.[Br-] [C14TAB]
Nagg [16]: 70

CCCCCCCCCCCCCCCC[N+](C)(C)C.[Br-] [C16TAB]
Nagg [16]: 89

O=C(O)c1cn(C2CC2)c2cc(N3CCNCC3)c(F)cc2c1=O [Ciprofloxacin]
effectiveness toward MRSA-1 compared with 10-12-10(Et) [17]: two orders of magnitude less effective

CC(=O)N1CCN(c2ccc(OCC3COC(Cn4ccnc4)(c4ccc(Cl)cc4Cl)O3)cc2)CC1 (stereo not shown) [Ketoconazole, reference compound]
MFC ([5]; Candida albicans, ATCC10231, read-out: MFC, Ca): 3.9 ± 0.3 µg/mL (≈ 7.34 µM) | MIC ([5]; Candida albicans, ATCC10231, read-out: MIC, Ca): 3.9 ± 0.3 µg/mL (≈ 7.34 µM) | MFC ([11]; Aspergillus niger, BKMF1119, read-out: MFC, An): 125 ± 10 µg/mL (≈ 235 µM) | MIC ([11]; Aspergillus niger, BKMF1119, read-out: MIC, An): 15.6 ± 1.3 µg/mL (≈ 29.4 µM) | MFC ([13]; Trichophyton mentagrophytes, read-out: MFC, Tm): 3.9 ± 0.3 µg/mL (≈ 7.34 µM) | MIC ([13]; Trichophyton mentagrophytes, read-out: MIC, Tm): 3.9 ± 0.3 µg/mL (≈ 7.34 µM)
